Results reported in US20260007681A1, “INDOLE DERIVATIVES AS ESTROGEN RECEPTOR DEGRADERS” (REGENTS OF THE UNIVERSITY OF MICHIGAN, priority 2022, published 2026).

How the values were obtained:
[1] = target: ER (Homo sapiens (Human), UniProt P03372); test: In-cell western blot analysis of relative ER percentage (Compounds B1-B278); type: cell-based; conditions: ER degradation, 16 hours, read-out: ICW DC50
Outline: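 In-cell western: after 16 h compound exposure (0.5% DMSO final), fixed and permeabilized cells are probed with anti-ER plus anti-GAPDH and near-infrared secondaries. Relative ER percentage compares treated wells against untreated and DMSO wells taken as 100%; seeding 40,000 or 10,000 cells/well.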

[2] = Cell growth assay (WST-8) (Compounds B1-B278); type: cell-based; conditions: 96 h; T47D cell line; WST-8, 4 days; read-out: Cell Growth Inhibition in T47D cell line IC50
Outline: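 Read-out is WST-8 absorbance at 450 nm (2.5 h, 37° C) as a fraction of vehicle control, from three separate repeats. Compound exposure lasted 4 days, starting one day after plating 1500 cells/well.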

Sequence of ER (P03372 whole entry): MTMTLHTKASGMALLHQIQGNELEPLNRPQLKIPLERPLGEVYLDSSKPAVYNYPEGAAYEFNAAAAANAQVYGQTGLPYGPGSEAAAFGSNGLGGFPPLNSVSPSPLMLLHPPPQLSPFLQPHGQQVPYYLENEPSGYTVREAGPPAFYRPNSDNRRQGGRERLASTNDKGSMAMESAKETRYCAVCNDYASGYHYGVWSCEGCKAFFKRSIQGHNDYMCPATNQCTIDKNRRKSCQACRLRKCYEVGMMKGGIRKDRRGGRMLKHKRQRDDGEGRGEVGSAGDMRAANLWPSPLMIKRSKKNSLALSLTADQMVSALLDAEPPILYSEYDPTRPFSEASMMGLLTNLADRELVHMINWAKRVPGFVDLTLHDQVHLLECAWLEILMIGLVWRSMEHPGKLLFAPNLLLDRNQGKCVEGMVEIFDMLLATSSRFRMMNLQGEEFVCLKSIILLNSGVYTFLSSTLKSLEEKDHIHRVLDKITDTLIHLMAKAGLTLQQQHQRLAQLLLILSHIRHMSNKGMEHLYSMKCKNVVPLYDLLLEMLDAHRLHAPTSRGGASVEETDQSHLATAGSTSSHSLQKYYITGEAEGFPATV

## C[C@@H]1Cc2c([nH]c3ccccc23)[C@@H](c2ccc(N3CCC4(CC3)CC(CN3CCN5c6cc7c(cc6OC[C@@H]5C3)C(=O)N(C3CCC(=O)NC3=O)C7)CO4)cn2)N1CC(F)(F)F (stereo partly drawn) [Compound B147, 3-((4aS)-3-((8-(6-((1S,3R)-3-methyl-2-(2,2,2-trifluoroethyl)-2,3,4,9-tetrahydro-1H-pyrido[3,4-b]indol-1-yl)pyridin-3-yl)-1-oxa-8-azaspiro[4.5]dccan-3-yl)methyl)-8-oxo-1,2,3,4,4a,5,8,10-octahydro-9H-pyrazino[1′,2′:4,5][1,4]oxazino[2,3-f]isoindol-9-yl)piperidine-2,6-dione]
[1]
  DC50: 0.01 to 0.1 µM
[2]
  IC50: 0.001 to 0.01 µM

## C[C@@H]1Cc2c([nH]c3ccccc23)[C@@H](c2c(F)cc(N3CCC(CN4CCN5c6ccc7c(c6OC[C@H]5C4)CN(C4CCC(=O)NC4=O)C7=O)CC3)cc2F)N1CC(F)(F)CO (stereo partly drawn) [Compound B148, 3-((R)-7-((1-(4-((1R,3R)-2-(2,2-difluoro-3-hydroxypropyl)-3-methyl-2,3,4,9-tetrahydro-1H-pyrido[3,4-b]indol-1-yl)-3,5-difluorophenyl)piperidin-4-yl)methyl)-1-oxo-1,3,5,5a,6,7,8,9-octahydro-2H-pyrazino[1′,2′:4,5][1,4]oxazino[2,3-e]isoindol-2-yl)piperidine-2,6-dione]
[1]
  DC50: > 0.1 µM
[2]
  IC50: < 0.001 µM

## C[C@@H]1Cc2c([nH]c3ccccc23)[C@@H](c2c(F)cc(N3CC[C@@H](CN4CCN5c6ccc7c(c6OC[C@H]5C4)CN(C4CCC(=O)NC4=O)C7=O)C3)cc2F)N1CC(F)(F)CO (stereo partly drawn) [Compound B149, 3-((R)-7-(((S)-1-(4-((1R,3R)-2-(2,2-difluoro-3-hydroxypropyl)-3-methyl-2,3,4,9-tetrahydro-1H-pyrido[3,4-b]indol-1-yl)-3,5-difluorophenyl)pyrrolidin-3-yl)methyl)-1-oxo-1,3,5,5a,6,7,8,9-octahydro-2H-pyrazino[1′,2′:4,5][1,4]oxazino[2,3-e]isoindol-2-yl)piperidine-2,6-dione]
[1]
  DC50: > 0.1 µM
[2]
  IC50: 0.001 to 0.01 µM

## C[C@@H]1Cc2c([nH]c3ccccc23)[C@@H](c2c(F)cc(N3CC[C@H](CN4CCN5c6ccc7c(c6OC[C@H]5C4)CN(C4CCC(=O)NC4=O)C7=O)C3)cc2F)N1CC(F)(F)CO (stereo partly drawn) [Compound B150, 3-((R)-7-(((R)-1-(4-((1R,3R)-2-(2,2-difluoro-3-hydroxypropyl)-3-methyl-2,3,4,9-tetrahydro-1H-pyrido[3,4-b]indol-1-yl)-3,5-difluorophenyl)pyrrolidin-3-yl)methyl)-1-oxo-1,3,5,5a,6,7,8,9-octahydro-2H-pyrazino[1′,2′:4,5][1,4]oxazino[2,3-e]isoindol-2-yl)piperidine-2,6-dione]
[1]
  DC50: 0.01 to 0.1 µM
[2]
  IC50: 0.001 to 0.01 µM

## C[C@@H]1Cc2c([nH]c3ccccc23)[C@@H](c2c(F)cc(N3CCN(C(=O)CN4CCN5c6ccc7c(c6OC[C@H]5C4)CN(C4CCC(=O)NC4=O)C7=O)CC3)cc2F)N1CC(F)F (stereo partly drawn) [Compound B151, 3-((R)-7-(2-(4-(4-((1R,3R)-2-(2,2-difluoroethyl)-3-methyl-2,3,4,9-tetrahydro-1H-pyrido[3,4-b]indol-1-yl)-3,5-difluorophenyl)piperazin-1-yl)-2-oxoethyl)-1-oxo-1,3,5,5a,6,7,8,9-octahydro-2H-pyrazino[1′,2′:4,5][1,4]oxazino[2,3-e]isoindol-2-yl)piperidine-2,6-dione]
[1]
  DC50: > 0.1 µM
[2]
  IC50: < 0.001 µM

## C[C@@H]1Cc2c([nH]c3ccccc23)[C@@H](c2cnc(N3CCC4(CC3)CC(CN3CCN5c6ccc7c(c6OC[C@H]5C3)CN(C3CCC(=O)NC3=O)C7=O)C4)nc2)N1CC(F)(F)CO (stereo partly drawn) [Compound B153, 3-((R)-7-((7-(5-((1R,3R)-2-(2,2-difluoro-3-hydroxypropyl)-3-methyl-2,3,4,9-tetrahydro-1H-pyrido[3,4-b]indol-1-yl)pyrimidin-2-yl)-7-azaspiro[3.5]nonan-2-yl)methyl)-1-oxo-1,3,5,5a,6,7,8,9-octahydro-2H-pyrazino[1′,2′:4,5][1,4]oxazino[2,3-e]isoindol-2-yl)piperidine-2,6-dione]
[1]
  DC50: 0.01 to 0.1 µM
[2]
  IC50: 0.001 to 0.01 µM

## C[C@@H]1Cc2c([nH]c3ccccc23)[C@@H](c2cnc(N3CC4(CCC(CN5CCN6c7ccc8c(c7OC[C@H]6C5)CN(C5CCC(=O)NC5=O)C8=O)CC4)C3)nc2)N1CC(F)(F)CO (stereo partly drawn) [Compound B154, 3-((R)-7-((2-(5-((1R,3R)-2-(2,2-difluoro-3-hydroxypropyl)-3-methyl-2,3,4,9-tetrahydro-1H-pyrido[3,4-b]indol-1-yl)pyrimidin-2-yl)-2-azaspiro[3.5]nonan-7-yl)methyl)-1-oxo-1,3,5,5a,6,7,8,9-octahydro-2H-pyrazino[1′,2′:4,5][1,4]oxazino[2,3-e]isoindol-2-yl)piperidine-2,6-dione]
[1]
  DC50: 0.01 to 0.1 µM
[2]
  IC50: 0.001 to 0.01 µM

## C[C@@H]1Cc2c([nH]c3ccccc23)[C@@H](c2cnc(N3CCC4(CC3)CC(N3CCN5c6ccc7c(c6OC[C@H]5C3)CN(C3CCC(=O)NC3=O)C7=O)C4)nc2)N1CC(F)F (stereo partly drawn) [Compound B155, 3-((R)-7-(7-(5-((1R,3R)-2-(2,2-difluoroethyl)-3-methyl-2,3,4,9-tetrahydro-1H-pyrido[3,4-b]indol-1-yl)pyrimidin-2-yl)-7-azaspiro[3.5]nonan-2-yl)-1-oxo-1,3,5,5a,6,7,8,9-octahydro-2H-pyrazino[1′,2′:4,5][1,4]oxazino[2,3-e]isoindol-2-yl)piperidine-2,6-dione]
[1]
  DC50: > 0.1 µM
[2]
  IC50: 0.001 to 0.01 µM

## C[C@@H]1Cc2c([nH]c3ccccc23)[C@@H](c2cnc(N3CC4(CCC(N5CCN6c7ccc8c(c7OC[C@H]6C5)CN(C5CCC(=O)NC5=O)C8=O)CC4)C3)nc2)N1CC(F)F (stereo partly drawn) [Compound B156, 3-((R)-7-(2-(5-((1R,3R)-2-(2,2-difluoroethyl)-3-methyl-2,3,4,9-tetrahydro-1H-pyrido[3,4-b]indol-1-yl)pyrimidin-2-yl)-2-azaspiro[3.5]nonan-7-yl)-1-oxo-1,3,5,5a,6,7,8,9-octahydro-2H-pyrazino[1′,2′:4,5][1,4]oxazino[2,3-e]isoindol-2-yl)piperidine-2,6-dione]
[1]
  DC50: > 0.1 µM
[2]
  IC50: > 0.01 µM

## C[C@@H]1Cc2c([nH]c3ccccc23)[C@@H](c2cnc(N3CCC4(CC(CN5CCN6c7ccc8c(c7OC[C@H]6C5)CN(C5CCC(=O)NC5=O)C8=O)C4)C3)nc2)N1CC(F)F (stereo partly drawn) [Compound B157, 3-((R)-7-((6-(5-((1R,3R)-2-(2,2-difluoroethyl)-3-methyl-2,3,4,9-tetrahydro-1H-pyrido[3,4-b]indol-1-yl)pyrimidin-2-yl)-6-azaspiro[3.4]octan-2-yl)methyl)-1-oxo-1,3,5,5a,6,7,8,9-octahydro-2H-pyrazino[1′,2′:4,5][1,4]oxazino[2,3-e]isoindol-2-yl)piperidine-2,6-dione]
[1]
  DC50: > 0.1 µM
[2]
  IC50: 0.001 to 0.01 µM

## C[C@@H]1Cc2c([nH]c3ccccc23)[C@@H](c2cnc(N3CC4(CCC(N5CCN6c7ccc8c(c7OC[C@H]6C5)CN(C5CCC(=O)NC5=O)C8=O)CC4)C3)nc2)N1CC(F)(F)CO (stereo partly drawn) [Compound B158, 3-((R)-7-(2-(5-((1R,3R)-2-(2,2-difluoro-3-hydroxypropyl)-3-methyl-2,3,4,9-tetrahydro-1H-pyrido[3,4-b]indol-1-yl)pyrimidin-2-yl)-2-azaspiro[3.5]nonan-7-yl)-1-oxo-1,3,5,5a,6,7,8,9-octahydro-2H-pyrazino[1′,2′:4,5][1,4]oxazino[2,3-e]isoindol-2-yl)piperidine-2,6-dione]
[1]
  DC50: > 0.1 µM
[2]
  IC50: < 0.001 µM

## C[C@@H]1Cc2c([nH]c3ccccc23)[C@@H](c2cnc(N3CCC(CCN4CCN5c6ccc7c(c6OC[C@H]5C4)CN(C4CCC(=O)NC4=O)C7=O)CC3)nc2)N1CC(F)(F)CO (stereo partly drawn) [Compound B159, 3-((R)-7-(2-(1-(5-((1R,3R)-2-(2,2-difluoro-3-hydroxypropyl)-3-methyl-2,3,4,9-tetrahydro-1H-pyrido[3,4-b]indol-1-yl)pyrimidin-2-yl)piperidin-4-yl)ethyl)-1-oxo-1,3,5,5a,6,7,8,9-octahydro-2H-pyrazino[1′,2′:4,5][1,4]oxazino[2,3-e]isoindol-2-yl)piperidine-2,6-dione]
[1]
  DC50: > 0.1 µM
[2]
  IC50: > 0.01 µM

## C[C@@H]1Cc2c([nH]c3ccccc23)[C@@H](c2cnc(N3CCC(CCN4CCN5c6ccc7c(c6OC[C@H]5C4)CN(C4CCC(=O)NC4=O)C7=O)CC3)nc2)N1CC(F)F (stereo partly drawn) [Compound B160, 3-((R)-7-(2-(1-(5-((1R,3R)-2-(2,2-difluoroethyl)-3-methyl-2,3,4,9-tetrahydro-1H-pyrido[3,4-b]indol-1-yl)pyrimidin-2-yl)piperidin-4-yl)ethyl)-1-oxo-1,3,5,5a,6,7,8,9-octahydro-2H-pyrazino[1′,2′:4,5][1,4]oxazino[2,3-e]isoindol-2-yl)piperidine-2,6-dione]
[1]
  DC50: > 0.1 µM
[2]
  IC50: 0.001 to 0.01 µM

## C[C@@H]1Cc2c([nH]c3ccccc23)[C@@H](c2cnc(N3CCC4(CCC(CN5CCN6c7ccc8c(c7OC[C@H]6C5)CN(C5CCC(=O)NC5=O)C8=O)CC4)CC3)nc2)N1CC(F)F (stereo partly drawn) [Compound B161, 3-((R)-7-((3-(5-((1R,3R)-2-(2,2-difluoroethyl)-3-methyl-2,3,4,9-tetrahydro-1H-pyrido[3,4-b]indol-1-yl)pyrimidin-2-yl)-3-azaspiro[5.5]undecan-9-yl)methyl)-1-oxo-1,3,5,5a,6,7,8,9-octahydro-2H-pyrazino[1′,2′:4,5][1,4]oxazino[2,3-e]isoindol-2-yl)piperidine-2,6-dione]
[1]
  DC50: > 0.1 µM
[2]
  IC50: > 0.01 µM
